Reference: patent US11154551B2, “HDAC1,2 inhibitors and methods of using the same” (UNIVERSITY OF UTAH RESEARCH FOUNDATION, priority 2014, dated 2021)
Entries after “also recorded” stand apart in the source; their conditions may differ.

Experiments:
[1] = system: Hdac1,2; test: in vitro enzyme assays, IC50 determination (FIG. 17A); assay type: biochemical
Method: (A). For IC50 determination, recombinant HDAC enzymes were treated with HDAC1,2 or HDAC3 inhibitors in in vitro HDAC assays. (B). Western blots for H3K23ac using extracts from Pre-B-ALL SupB15 cells treated with increasing dose of HDAC1,2 inhibitor (ACY1035). (C). Hdac1^FI/FI, 2^FI/FI cells were infected with Ad-Cre virus to delete HDAC1 and HDAC2 (HDAC1,2 null) or uninfected (WT). (D). Hdac3^FI/FI cells were either uninfected (WT) or infected with Ad-Cre virus to delete Hdac3. HDAC3-null cells were treated with DMSO or the HDAC1,2 selective inhibitor.
We have determined 2 μM (FIG. 17B) as the minimum dose for the ACY compounds, respectively, that when added to cells increased H3K23ac (a mark targeted by Hdac1,2 but not Hdac3).

[2] = system: SupB15 (Ph+PreB-ALL) cells; test: γH2AX immunofluorescence; assay type: cell-based, human; details: 2 μM, 48 hours
Method: SupB15 cells were treated with 2 μM ACY1035, ACY1071, ACY957, or solvent (DMSO) for 48 hours. (A) Immunofluorescence with γH2AX was performed on treated SupB15 cells. The number of γH2AX foci was counted in around 100 cells for each treatment and classified into cells with no foci, 1-5, 6-10, and greater than 10 foci. (B) SupB15 cells treated with DMSO or ACY1035 for 48 hours were tested via neutral comet assay to measure the amount of double-strand breaks (DSBs), indicated by the tail.
BCR-ABL promotes DNA repair to prevent DNA damage accumulation in Philadelphia chromosome-positive (Ph+) leukemia cells. To examine the effect of various HDAC1,2-selective inhibitors on DNA repair and DNA damage response in Pre-B-ALL cells that express BCR-ABL, SupB15 (Ph+PreB-ALL) cells were treated with 2 μM ACY1035 or 2 μM ACY1071 or 2 μM ACY957 for 48 hours.

[3] = system: Karpas-422 cells; test: propidium-iodide / BrdU-PI cell cycle analysis; assay type: cell-based, human; details: for progression through the cell cycle: 24 h; for progression through the cell cycle / cell cycle / sub-G1 (dead cells): 2 μM ACY-957, 0.5 μM DZNEP, 0.5 μM GSK126
Method: (§1) (B): Quantitation of the cell cycle data in (A), compiled from three independent analyses. The graphs plotted the average percentage of cells in each phase of the cell cycle. […] (C): FACS analysis following BrdU-PI staining of Karpas-422 and SUDHL4 cells was performed following a 48 h or 72 h treatment with ACY-957.
Cell cycle analysis of propidium-iodide stained cells was performed with fixed cells. […] (C): FACS analysis following BrdU-PI staining of Karpas-422 and SUDHL4 cells was performed following a treatment with 2 μM ACY-957, 50 nM doxorubicin or both for 48 h.
(§2) (B): Quantitation of the cell cycle analysis performed in (A). Data from three independent cell cycle analyses were compiled and average percentage cells with standard errors were shown in this panel.
(§3) Propidium-iodide Cell Cycle Analysis.
(§4) Since these DLBCL cells expressed a hyperactive form of EZH2, pharmacological inhibition of EZH2 activity was considered a therapeutic strategy. […] GSK126 was a S-adenosyl-methionine-competitive inhibitor of EZH2 methyltransferase activity, and DZNep was a S-adenosylhomocysteine hydrolase inhibitor that disrupted the components of the PRC2 complex, thereby causing reduced chromatin-associated EZH2 levels.
To test this possibility, cell cycle analysis following treatment of Karpas-422 with ACY-957, doxorubicin, or ACY-957 in combination with doxorubicin was performed.

[4] = system: SUDHL4 cells; test: propidium-iodide / BrdU-PI cell cycle analysis; assay type: cell-based, human; details: for progression through the cell cycle: 24 h; for progression through the cell cycle / cell cycle / G1 arrest and sub-G1: 2 μM ACY-957, 0.5 μM DZNEP, 0.5 μM GSK126; for cell cycle / G1 arrest and sub-G1: 72 h
Method: as §1, §2, §3, §4

[5] = system: Karpas-422 and SUDHL4 cells; test: Western blot of chromatin extracts for H3K27ac and H3K27me3; assay type: cell-based, human; details: 48 h, chromatin extracts
Method: Western blot analysis was done with anti-H3K27ac, H3K27me3 or EZH2 and histone H3 served as a loading control.
Following DMSO or ACY-957 treatment, cells were exposed to a 5Gy dose of ionizing radiation and allowed to recover for 30 minutes prior to chromatin extraction. Western blots were performed with anti-H3K27ac or anti-H3K27me3 with histone H3 serving as a loading control. (B-E): Karpas-422, SUDHL4, WSU-DLCL2 and HeLa cells were laser micro-irradiated and allowed to recover for 15 minutes before fixation and immunofluorescence staining with anti-γH2AX and anti-H3K27me3. Subsequently, the percentage of cells with H3K27me3 lines that co-localized with γH2AX were counted. Merge is the overlay of γH2AX and H3K27me3 pictures. (F-I): At least 100 cells with γH2AX lines were counted in each experiment. The quantitation shown was the average calculated from independent experiments+/−standard error. Quantitation from five, seven, five and six independent experiments performed in Karpas-422, SUDHL4, WSU-DLCL2 and HeLa cells, respectively, was used in the graph shown in this figure. (J): Karpas-422 cells were micro-irradiated with a laser and allowed to recover for 15 minutes before fixation and immunofluorescence staining was performed with anti-γH2AX and anti-H3K27ac.
Protein Preparation and Western Blot Analysis.
The histone H3K27 residue was subjected to reversible acetylation and methylation. […] We also treated cells with the second EZH2 inhibitor, GSK126 alone, or combined with ACY-957 (ACY-957+GSK126). […] Cells were treated for 48 h prior to preparing chromatin extracts for Western analysis using antibodies recognizing H3K27ac or H3K27me3.
We first examined whether inhibiting HDAC1,2 activity induced any change in global H3K27ac or H3K27me3 on chromatin following DNA damage and during DNA repair. SUDHL4 or Karpas-422 cells with or without exposure to ionizing radiation (IR) were initially treated with DMSO or ACY-957 for 48 hr. Chromatin extracts were prepared from these cells following a 30 min recovery period (the repair phase) and changes in histone modifications were examined by Western blotting.

[6] = system: SUDHL4 and Karpas-422 cells; test: γH2AX foci formation by immunofluorescence; assay type: cell-based, human; details: 48 h; 2 μM ACY-957, 0.5 μM DZNEP, 0.5 μM GSK126
Method: (§5) The percentage of cells with 6 or greater γH2AX foci were counted in three independent experiments and at least 100 cells were counted in each experiment. […] Histones were purified using trichloroacetic acid extraction protocol (see Example 1). Western blot analysis was done with anti-γH2AX and histone H2AX served as the loading control. […] Following DMSO or ACY957 treatment, cells were exposed to a 5Gy dose of ionizing radiation and allowed to recover for 30 minutes prior to chromatin extraction. Western blot analysis was done with anti-γH2AX where total histone H2AX served as a loading control. (D): Karpas-422 cells were micro-irradiated with laser and allowed to recover for 15 minutes before fixation and immunofluorescence staining with anti-γH2AX, anti-HDAC1 and anti-HDAC2 antibodies was done.
Immunofluorescence. Cells were fixed in either 10% formalin or methanol-acetone (1:1) for 10 min at −20*C. The cells were then permeabilized with 0.5% Triton-X-100 in PBS for 5 min at room temperature (RT), blocked in 10% normal goat serum (Sigma) for 30 min and stained with primary antibody for 1 h at RT. Cells were incubated with secondary antibody (anti-mouse or anti-rabbit IgG, Alexa Fluor 488/546) at a 1:600 dilution for 45 min at RT, and counterstained with Hoechst 33342 (Sigma) at 1:1000 dilution to visualize the nuclei. Images were captured using Zeiss Axioskop mot plus microscope with a 40× lens and analyzed using the AxioVision software.

[7] = system: SUDHL4 and Karpas-422 cells; test: Western blot of γH2AX on chromatin, with or without ionizing radiation; assay type: cell-based, human; details: 48 hr, Western
Method: as §5

[8] = system: Karpas-422 cells; details: publically available RNA seq data set of GSK126 treated cells; cited from earlier work
[9] = system: Hdac1,2 or Hdac3 knockout cell lines; test: Western blot of H4K5ac in conditional Hdac1,2 or Hdac3 knockout cells; assay type: cell-based, mouse
Method: For IC50 determination, recombinant HDAC enzymes were treated with HDAC1,2 or HDAC3 inhibitors in in vitro HDAC assays. (B). Western blots for H3K23ac using extracts from Pre-B-ALL SupB15 cells treated with increasing dose of HDAC1,2 inhibitor (ACY1035). (C). Hdac1^FI/FI, 2^FI/FI cells were infected with Ad-Cre virus to delete HDAC1 and HDAC2 (HDAC1,2 null) or uninfected (WT). (D). Hdac3^FI/FI cells were either uninfected (WT) or infected with Ad-Cre virus to delete Hdac3.

[10] = system: Karpas-422 and SUDHL4 cells; test: Western blot of histone acetylation marks in whole cell lysates; details: 2 μM, 24 hours, vs DMSO
Method: Compounds were diluted in DMSO to 50 fold the final concentration and a ten point three fold dilution series was made. The compounds were diluted in assay buffer (50 mM HEPES, pH 7.4, 100 mM KCl, 0.001% Tween-20, 0.05% BSA, 20 μM tris(2-carboxyethyl)phosphine) to 6 fold their final concentration. The HDAC enzymes (purchased from BPS Biosciences) were diluted to 1.5 fold their final concentration in assay buffer. The tripeptide substrate (synthesized in house) and trypsin at 0.05 μM final concentration were diluted in assay buffer at 6 fold their final concentration. Five μl compounds and 20 μl of enzyme were added to wells of a black, opaque 384 well plate in duplicate. Enzyme and compound were incubated together at room temperature for 10 minutes. Five μl of substrate was added to each well, the plate was shaken for 60 seconds and placed into a Victor 2 microtiter plate reader. The development of fluorescence was monitored for 60 min and the linear rate of the reaction was calculated. The IC50 was determined using Graph Pad Prism by a four parameter curve fit.

Row | SMILES | progression through the cell cycle [3] | cell cycle / sub-G1 (dead cells) ([3]; 48 h) | cell cycle / sub-G1 (dead cells) ([3]; 72 h) | progression through the cell cycle [4] | cell cycle / G1 arrest and sub-G1 [4] | global H3K27me3 levels [5] | cells with γH2AX foci [6] | other results
1 | Nc1ccc(-c2ccncc2)cc1NC(=O)c1ccc2c(c1)cc(C1CC1)n2CCN1CCOCC1 [ACY-1071, N-(2-amino-5-(pyridin-4-yl)phenyl)-2-cyclopropyl-1-(2-morpholinoethyl)-1H-indole-5-carboxamide] |  |  |  |  |  |  |  | inhibition of Hdac1,2 activities compared to Hdac3 (IC50 values) [1]: very selectively; DNA damage, quantitation of γH2AX foci [2]: statistically significant increase in DNA damage
2 | Nc1nccc2c1ncn2C1C=C(CO)C(O)C1O (stereo not shown) [DZNep, reference compound] | did not affect their progression through the cell cycle | modest increase in the number of dead Karpas-422 cells | larger increase in the number of dead Karpas-422 cells | did not affect their progression through the cell cycle | modest increase in dead/sub-G1 SUDHL4 cells | without reducing global H3K27me3 levels | significant increase in the number of cells with greater than six γH2AX foci | chromatin associated γH2AX [7]: greater increase in γH2AX levels on chromatin compared to GSK126
3 | CC[C@H](C)n1cc(C)c2c(C(=O)NCc3c(C)cc(C)[nH]c3=O)cc(-c3ccc(N4CCNCC4)nc3)cc21 [GSK126, reference compound] | did not affect their progression through the cell cycle | did not cause any change in the progression | did not result in any defect in the cell cycle progression and/or survival | did not affect their progression through the cell cycle | did not result in any defect in the cell cycle progression and/or survival | decrease in global H3K27me3 levels; also recorded: significant decrease in H3K27me3 | slight increase in γH2AX foci | incubation required to decrease the viability [3]: 7 days; cell cycle / G1 arrest ([4]; 48 h, 2 μM ACY-957, 0.5 μM GSK126): did not cause any change in the progression; BLIMP1 expression increase [8]: 2.4 fold
4 | Nc1ccccc1NC(=O)c1ccc(CNC(=O)OCc2cccnc2)cc1 [MS275, reference compound] |  |  |  |  |  |  |  | H4K5ac compared with deletion of Hdac1,2 [9]: greater increase in H4K5ac than the deletion of just Hdac1,2
5 | O=C(CCCCCCC(=O)Nc1ccccc1)NO [SAHA, Vorinostat, reference compound] |  |  |  |  |  |  |  | H3K23ac levels [10]: increase in H3K23ac
